In PubChem BioAssay AID1205 (EPA DSSTox, 2008):
Active and inactive are the calls of the source.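 How the source made its calls: active means tumour findings in long-term animal cancer tests in more than one sex, species or organ; inactive means no tumour finding and more than one negative test.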

experiment: DSSTox (CPDBAS) Carcinogenic Potency Database Summary MultiCellCall Results; settings: animal carcinogenicity bioassays, multi-cell call summary
In short: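 ActivityScore sums 50 for multispecies, 30 for multisex and 20 for multisite positivity. Based on the most positive experiment per sex-species across standardised chronic rodent and other animal cancer tests.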

Compound	outcome
Cc1cc(C)c(N)cc1C	active; multisite active; multisex active; multispecies active
CC1(C)COC1=O	active; multisex active
CC(O)C(=O)O (stereo not given)	inactive; multisex inactive
CC(=O)Oc1c(C)c(C)c2c(c1C)CCC(C)(CCCC(C)CCCC(C)CCCC(C)C)O2 (stereo not given)	inactive; multisex inactive
C=CCN(N=O)C(N)=O	active; multisite active; multisex active
Cc1cccn2c1nc1ccc(N)nc12	active; multisite active; multisex active; multispecies active
COc1cc2c(c3oc4cccc(O)c4c(=O)c13)C1C=COC1O2 (stereo not given)	active; multisite active; multisex active; multispecies active
C=Cc1cccc(C)c1	inactive; multisex inactive; multispecies inactive
C=CC(=O)OCC	active; multisex active; multispecies active
C=CCc1ccc(O)c(OC)c1	inactive; multisex inactive; multispecies inactive
CN(C)c1ccc(C(=C2C=CC(=[N+](C)C)C=C2)c2ccc(N(C)C)cc2)cc1	active; multisite active; multisex active
Clc1ccc(-c2ccc(Cl)c(Cl)c2Cl)c(Cl)c1Cl	active; multisite active; multisex active
c1ccc(Nc2ccc3ccccc3c2)cc1	inactive; multisex inactive; multispecies inactive
C1CCNCC1	inactive; multisex inactive
O=C(O)c1[nH]n(-c2ccc(S(=O)(=O)O)cc2)c(=O)c1N=Nc1ccc(S(=O)(=O)O)cc1	inactive; multisex inactive; multispecies inactive
CC(C)Nc1nc(Cl)nc(NC(C)C)n1	inactive; multisex inactive
CC(=O)CN(N=O)C(=O)NCCCl	active; multisex active
CCN(CC)CC#CC(C)(C)OC(=O)C(O)(c1ccccc1)C1CCCCC1 (stereo not given)	inactive; multisex inactive; multispecies inactive
COC(=O)C(c1ccccc1)C1CCCCN1N=O (stereo not given)	inactive; multisex inactive
C1CCC(C(CC2CCCCN2)C2CCCCC2)CC1 (stereo not given)	inactive; multisex inactive
C=CN1CCCC1=O	active; multisite active; multisex active
C[C@@H]1C/C=C/C=C/C=C/C=C/[C@H](O[C@@H]2O[C@H](C)[C@@H](O)[C@H](N)[C@@H]2O)C[C@@H]2O[C@](O)(C[C@@H](O)C[C@H]3O[C@@H]3/C=C/C(=O)O1)C[C@H](O)[C@H]2C(=O)O	inactive; multisex inactive
c1ccc(-c2ccccc2)cc1	inactive; multisex inactive
Nc1ccc(Sc2ccc(N)cc2)cc1	active; multisite active; multisex active; multispecies active
N[C@@H](CCC(=O)NNc1ccc(CO)cc1)C(=O)O	inactive; multisex inactive

Compound	outcome
CC(=O)OC[C@]12C[C@H](OC(=O)CC(C)C)C(C)=C[C@H]1O[C@@H]1[C@H](O)[C@@H](OC(C)=O)[C@@]2(C)C12CO2 (stereo not given in full)	active; multisite active
OCCBr	active; multisex active
O=C(O)c1cccnc1	inactive; multisex inactive
ClCc1ccccc1	active; multisex active
NC(=O)Cc1cccc2ccccc12	inactive; multisex inactive
COc1ccc(N)cc1N	active; multisite active; multisex active; multispecies active
O=[N+]([O-])c1ccc2ncccc2c1	inactive; multisex inactive
O=CNc1nc(-c2ccc([N+](=O)[O-])o2)cs1	active; multisite active; multisex active; multispecies active
CCCCCCCCCCCCCCN(C)N=O	active; multisite active
[S-]c1nc2ccccc2s1.[S-]c1nc2ccccc2s1.[Zn+2]	inactive; multisex inactive
COc1ccccc1[N+](=O)[O-]	active; multisite active; multisex active; multispecies active
CCCCCN(N=O)C(=O)OCC	active; multisite active
CCN(CC)C(=S)[S-].CCN(CC)C(=S)[S-].[Zn+2]	inactive; multisex inactive
COc1ccccc1N	active; multisite active; multisex active; multispecies active
Cc1cc(-c2ccc(N)c(C)c2)ccc1N	active; multisite active; multisex active; multispecies active
O=Nc1ccc(Nc2ccccc2)cc1	active; multispecies active
Oc1ccc2c(c1)OCO2	active; multisex active; multispecies active
CN1[C@@H]2CC[C@H]1CC(OC(=O)C(CO)c1ccccc1)C2 (stereo not given in full)	inactive; multisex inactive
Cc1c(COC(=O)C2C(/C=C(\Cl)C(F)(F)F)C2(C)C)cccc1-c1ccccc1 (stereo not given)	inactive; multisex inactive
Cc1noc(NS(=O)(=O)c2ccc(N)cc2)c1C	inactive; multisex inactive; multispecies inactive
CCC(O)OC(O)CC (stereo not given)	inactive; multisex inactive; multispecies inactive
CC(C)(C)c1cc(C(C)(C)C)c(O)c(C(C)(C)C)c1	inactive; multisex inactive
Nc1ccc(NC(=O)c2ccc(N)cc2)cc1	inactive; multisex inactive
CC#N	inactive; multisex inactive; multispecies inactive
CCCCC/C=N/N(C)C=O	active; multisite active; multisex active

Compound	outcome
O=c1cc(CO)occ1O	active; multisex active
CCN(CC)C(=O)Nc1ccc(OCC(O)CNC(C)(C)C)c(C(C)=O)c1 (stereo not given)	inactive; multisex inactive; multispecies inactive
CCCCCc1cc(O)c2c(c1)OC(C)(C)[C@@H]1CCC(C)=C[C@@H]21	inactive; multisex inactive; multispecies inactive
C[C@]12CC[C@H](OS(=O)(=O)O)CC1=CC[C@@H]1[C@@H]2CC[C@]2(C)C(=O)CC[C@@H]12	inactive; multisex inactive
CCCCOC(=O)COc1ccc(Cl)cc1Cl	inactive; multisex inactive
CC(C)CCC[C@@H](C)[C@H]1CC[C@H]2[C@@H]3CC=C4C[C@@H](OC(=O)Cc5ccc(N(CCCl)CCCl)cc5)CC[C@]4(C)[C@H]3CC[C@]12C	active; multisite active; multisex active; multispecies active
ClC(Cl)=C(c1ccc(Cl)cc1)c1ccc(Cl)cc1	active; multisex active; multispecies active
CC(=O)NNc1ccc(CO)cc1	active; multisite active; multisex active
ClC(Cl)C(Cl)(Cl)Cl	active; multisex active
ClCOCCl	active; multisite active; multisex active; multispecies active
O=C1C(Cl)=C(Cl)C(=O)C(Cl)=C1Cl	inactive; multisex inactive
NC(=O)N(CC(=O)O)N=O	active; multisite active; multisex active
CC(C)NCC(O)COc1cccc2ccccc12 (stereo not given)	inactive; multisex inactive; multispecies inactive
c1ccncc1	active; multisite active; multisex active; multispecies active
Nc1ccc2c(n1)[nH]c1ccccc12	active; multisite active; multisex active
Oc1ccc(OCc2ccccc2)cc1	inactive; multisex inactive
FC(F)Cl	inactive; multisex inactive; multispecies inactive
CC/C(=C(/CC)c1ccc(O)cc1)c1ccc(O)cc1	active; multisite active; multisex active; multispecies active
O=C1NS(=O)(=O)c2ccccc21	inactive; multisex inactive; multispecies inactive
COc1cc(S(C)=O)ccc1-c1nc2ccncc2[nH]1 (stereo not given)	active; multisex active
CC1(C)S[C@@H]2[C@H](NC(=O)[C@H](N)c3ccccc3)C(=O)N2[C@H]1C(=O)O	inactive; multisex inactive; multispecies inactive
Cn1cc(OCC(O)CNC(C)(C)C)c2ccccc2c1=O (stereo not given)	inactive; multisex inactive; multispecies inactive
OC[C@@H](O)[C@@H](O)[C@H](O)[C@H](O)CO[C@H]1O[C@H](CO)[C@@H](O)[C@H](O)[C@H]1O	inactive; multisex inactive
CN1CCCC1=O	active; multisex active
CCCCCCCCCc1ccc(OCCOCCO)cc1	inactive; multispecies inactive

Compound	outcome
C=CC(=O)NCO	active; multisite active; multisex active
c1ccc(C2CO2)cc1 (stereo not given)	active; multisex active; multispecies active
CN(C)CCC(c1ccc(Cl)cc1)c1ccccn1 (stereo not given)	inactive; multisex inactive; multispecies inactive
Cc1ccc2ncccc2c1	inactive; multisex inactive
CN(C)C(=S)S	inactive; multisex inactive
O=C(O)c1cc(Oc2ccc(C(F)(F)F)cc2Cl)ccc1[N+](=O)[O-]	active; multisite active; multisex active
Cc1cc(N=Nc2ccccc2C)ccc1N	active; multisex active
CCCOC(=O)C1c2cc3c(cc2CC(C)C1C(=O)OCCC)OCO3 (stereo not given)	inactive; multisex inactive
CCCCCCCC/C=C\CCCCCCCC(=O)O	inactive; multisex inactive
CN(C)CCN(C)N=O	active; multisite active; multisex active
CN[C@H]1CC[C@@H](c2ccc(Cl)c(Cl)c2)c2ccccc21	inactive; multisex inactive; multispecies inactive
CC(C)(C)c1cc(CO)cc(C(C)(C)C)c1O	inactive; multisex inactive
S=C(SSSSSSC(=S)N1CCCCC1)N1CCCCC1	inactive; multisex inactive
c1ccc(OCC2CO2)cc1 (stereo not given)	active; multisex active
C[N+](C)(C)CCO	inactive; multispecies inactive
NC(N)=Nc1nc(CSCCNc2nsnc2N)cs1	active; multisex active
C/C=N/N(C)C=O	active; multisite active; multisex active
CC1CCC(C(C)C)C(O)C1 (stereo not given)	inactive; multisex inactive; multispecies inactive
CC(C)[N+](=O)[O-]	inactive; multisex inactive
Nc1ccc(N=Nc2ccc(-c3ccc(N=Nc4c(S(=O)(=O)O)cc5cc(S(=O)(=O)O)c(N=Nc6ccccc6)c(O)c5c4N)cc3)cc2)c(N)c1	active; multisite active; multisex active; multispecies active
COc1ccc(O)c(C(C)(C)C)c1	active; multisex active; multispecies active
Cc1cc(OC(=O)N(C)C)n(C(C)C)n1	inactive; multisex inactive
ClCCCl	active; multisite active; multisex active; multispecies active
CC(N)=S	active; multisex active; multispecies active
NNC(N)=S	inactive; multisex inactive; multispecies inactive
